The values that follow are results of earlier work, collected in US20050037089A1, “Method for promoting bone growth” (priority 2003, published 2005).

For the molecule `CC[C@H](C)[C@H](NC(=O)[C@H](CCC(=O)O)NC(=O)[C@H](CO)NC(=O)[C@@H](NC(=O)[C@@H](N)CO)C(C)C)C(=O)N[C@@H](CCC(N)=O)C(=O)N[C@@H](CC(C)C)C(=O)N[C@@H](CCSC)C(=O)N[C@@H](Cc1cnc[nH]1)C(=O)N[C@@H](CC(N)=O)C(=O)N[C@@H](CC(C)C)C(=O)NCC(=O)N[C@@H](CCCCN)C(=O)N[C@@H](Cc1cnc[nH]1)C(=O)N[C@@H](CC(C)C)C(=O)N[C@@H](CC(N)=O)C(=O)N[C@@H](CO)C(=O)N[C@@H](CCSC)C(=O)N[C@@H](CCC(=O)O)C(=O)N[C@@H](CCCN=C(N)N)C(=O)N[C@H](C(=O)N[C@@H](CCC(=O)O)C(=O)N[C@@H](Cc1c[nH]c2ccccc12)C(=O)N[C@@H](CC(C)C)C(=O)N[C@@H](CCCN=C(N)N)C(=O)N[C@@H](CCCCN)C(=O)N[C@@H](CCCCN)C(=O)N[C@@H](CC(C)C)C(=O)N[C@@H](CCC(N)=O)C(=O)N[C@@H](CC(=O)O)C(=O)N[C@H](C(=O)N[C@@H](Cc1cnc[nH]1)C(=O)N[C@@H](CC(N)=O)C(=O)N[C@@H](Cc1ccccc1)C(=O)O)C(C)C)C(C)C` [hPTH(1-34)], the bone formation result (patients with osteoporosis, subcutaneous administration) is given as “increase bone formation”. For the same molecule, under “postmenopausal women, daily subcutaneous administration of 20 μg or 40 μg”, the bone density result is on record as “increase bone density”.
